Measurements from patent publication US10925875B2 (National Jewish Health, priority 2018, dated 2021).

Legend:
Type in all cases: cell-based, human
[1] = system: IL5+ ILC2s from the blood; test: Steroid response of blood IL5+ ILC2s by flow cytometry; conditions: MNC and BAL cells, Dex 10^−7M, 3 days, e-Fluor 780
Method: (§1) FIGS. 1A and 1B show the effect of dexamethasone (Dex) on blood (A) and bronchoalveolar lavage (BAL) (B) Type 2 innate lymphoid cells (ILC2s). Peripheral blood mononuclear cells (PBMC) and BAL cells from an asthmatic patient were cultured with vehicle (V, ethanol)) or dexamethasone (Dex 10^−7M), a synthetic steroid, for 3 days. The frequency of lin−CRTH2+IL7Rα+IL5+ cells (considered as markers of ILC2s) was measured by flow cytometry (FCM) and analyzed by FlowJo. Frequency of dead cells (measured by e-Fluor 780, e-Bioscience) was less than 10% and excluded from the gating. The difference in dead cells between V and Dex was less than 10%). Prostaglandin D2 receptor 2 (CRTH2); interleukin-7 receptor alpha (IL7Rα); interleukin-5 (IL-5).
FIGS. 1C and 1D show the cumulative data on the effect of dexamethasone (Dex) on blood (FIG. 1C) and BAL (FIG. 1D) lin−CRTH2+IL7Rα+IL5+ cells from 14 allergic asthmatic patients.
(§2) Steroid response of ILC2s from the bronchoalveolar lavage (BAL, obtained during bronchoscopy) and blood obtained from asthmatic patients was studied. Blood was processed to isolate mononuclear cells (MNC). BAL cells were studied without further processing. […] Interluekin-5 (IL5)-expressing ILC2s were examined by flow cytometry and analyzed by FlowJo. […] Frequency of dead cells (measured by e-Fluor 780, e-Bioscience) was less than 10% and excluded from the gating. […]

IL5 secretion by ILCs = test: Secreted IL5 by ELISA from isolated Lin− blood cells; conditions: Dex 10^-7 M, 5 days
Method: (§3) FIGS. 2C and 2D show lineage-negative (Lin−) cells (0.4×10^6 per culture) from peripheral blood obtained from 3 allergic rhinitis (non-asthmatic) patients were cultured with IL2/IL33 or IL2/TSLP with and without Dex (10^-7 M) for 5 days. Cell-free supernatant was analyzed for IL5 by ELISA. Cells were analyzed by FCM for intracellular IL5. P value for data on panel C was calculated by paired t test due to low N. Interleukin-2 (IL-2); interleukin-33 (IL-33).
(§4) The direct effect of Dex on isolated lineage− negative (Lin−) cells (representing ILCs) from the peripheral blood was examined. The effect of Dex was measured by two approaches: measurement of secreted IL5 by ELISA and measurement of the expression of intracellular IL5 by FCM. Dex inhibited IL5 secretion by IL2/IL33-stimulated ILCs by nearly 79% (FIG. 2C). In contrast, it inhibited IL5 secretion by IL2/TSLP-stimulated ILCs by only 25%. […] Dex inhibited intracellular IL5 expression in IL2/IL33- and IL2/TSLP-stimulated ILCs by 65% and 18%, respectively (FIG. 2D).

BAL IL5+ ILC2s = test: Steroid response of BAL IL5+ ILC2s by flow cytometry; conditions: BAL cells, MS 100 μM with and without Dex 10^−7M, 3 days
Method: as §1, with “(IL-5). […]” for “(IL-5).”
BAL cells were cultured with MS (100 μM) with and without Dex (10^−7M) for 3 days. IL5 expression by lin−CRTH2+IL7Rα+ ILC2s was measured by FCM (N=8, *: P=0.0006 by Kruskal Walis test).
as §2, with “studied.” for “studied. Blood was processed to isolate mononuclear cells (MNC). BAL cells were studied without further processing.”

[2] = system: intracellular IL5 expression in ILCs; test: Intracellular IL5 by FCM in isolated Lin− blood cells; conditions: Dex 10^-7 M, 5 days
Method: as §3, §4

MEK1/2 in ILC2s = test: Cytokine-induced MEK1/2 in ILC2s by FCM; conditions: PBMCs, IL2 plus TSLP with and without Dex, 5 days, lin−CRTH2+ cells
Method: FIGS. 4A and 4B show the effect of Dex on cytokine-induced MEK1 (MEK) induction. PBMCs from an asthmatic patient were cultured with medium or IL2 plus one of the two epithelial ILC-inducing cytokines—IL33 and TSLP with and without Dex for 5 days. The expression of MEK on gated live lin−CRTH2+ cells was analyzed by FCM.
Heightened MEK1/2 mediates steroid resistance of lymphocytes. The effect of IL33 and TSLP on MEK1/2 induction and the effect of Dex was examined.

## C[C@@H]1C[C@H]2[C@@H]3CCC4=CC(=O)C=C[C@]4(C)[C@@]3(F)[C@@H](O)C[C@]2(C)[C@@]1(O)C(=O)CO [Dex, dexamethasone]
[1]
  difference in dead cells between V and Dex: less than 10%
IL5 secretion by ILCs; IL2/IL33-stimulated ILCs
  inhibition of IL5 secretion: ~79%
IL5 secretion by ILCs; IL2/TSLP-stimulated ILCs
  inhibition of IL5 secretion: 25%
BAL IL5+ ILC2s
  inhibition of BAL IL5+ ILC2s: failed to inhibit
[2]; IL2/IL33-stimulated ILCs
  inhibition of intracellular IL5 expression: 65%
[2]; IL2/TSLP-stimulated ILCs
  inhibition of intracellular IL5 expression: 18%
MEK1/2 in ILC2s
  TSLP-induced MEK1/2: failed to inhibit
